Tests used:
Assay in all cases: KinaseProfiler Assay
EphB4(h) = molecular target: T1, EphB4(h) (Homo sapiens, UniProt P54760)
T1 sequence (P54760 16-987): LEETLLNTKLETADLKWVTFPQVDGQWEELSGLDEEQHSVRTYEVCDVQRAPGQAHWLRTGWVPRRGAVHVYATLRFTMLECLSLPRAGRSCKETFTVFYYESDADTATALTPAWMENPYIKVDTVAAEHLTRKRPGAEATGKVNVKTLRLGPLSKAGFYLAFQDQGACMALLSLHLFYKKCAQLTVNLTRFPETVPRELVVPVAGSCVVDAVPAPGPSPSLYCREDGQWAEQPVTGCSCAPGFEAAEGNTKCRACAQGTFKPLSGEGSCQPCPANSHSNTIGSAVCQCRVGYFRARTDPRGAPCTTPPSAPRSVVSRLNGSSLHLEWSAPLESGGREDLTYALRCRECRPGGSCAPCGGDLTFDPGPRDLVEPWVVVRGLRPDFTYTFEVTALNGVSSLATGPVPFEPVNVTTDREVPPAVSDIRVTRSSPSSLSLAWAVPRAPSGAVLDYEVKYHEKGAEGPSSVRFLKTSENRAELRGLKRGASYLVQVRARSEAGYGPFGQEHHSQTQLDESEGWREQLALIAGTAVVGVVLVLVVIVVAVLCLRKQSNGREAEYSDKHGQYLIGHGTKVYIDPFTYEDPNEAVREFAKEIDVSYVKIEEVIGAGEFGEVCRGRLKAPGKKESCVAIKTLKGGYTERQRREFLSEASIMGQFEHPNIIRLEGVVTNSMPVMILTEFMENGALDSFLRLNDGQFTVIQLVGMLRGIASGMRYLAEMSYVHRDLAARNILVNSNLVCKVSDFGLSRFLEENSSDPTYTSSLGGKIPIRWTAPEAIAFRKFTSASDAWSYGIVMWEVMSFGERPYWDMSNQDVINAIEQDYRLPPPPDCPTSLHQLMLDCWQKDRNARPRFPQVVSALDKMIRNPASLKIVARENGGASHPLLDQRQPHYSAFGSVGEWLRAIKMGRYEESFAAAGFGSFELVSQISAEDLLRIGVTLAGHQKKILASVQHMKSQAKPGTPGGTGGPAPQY

FGFR4(h) = FGFR4(h) (Homo sapiens, UniProt P22455)
FGFR4(h), sequence (P22455 22-802): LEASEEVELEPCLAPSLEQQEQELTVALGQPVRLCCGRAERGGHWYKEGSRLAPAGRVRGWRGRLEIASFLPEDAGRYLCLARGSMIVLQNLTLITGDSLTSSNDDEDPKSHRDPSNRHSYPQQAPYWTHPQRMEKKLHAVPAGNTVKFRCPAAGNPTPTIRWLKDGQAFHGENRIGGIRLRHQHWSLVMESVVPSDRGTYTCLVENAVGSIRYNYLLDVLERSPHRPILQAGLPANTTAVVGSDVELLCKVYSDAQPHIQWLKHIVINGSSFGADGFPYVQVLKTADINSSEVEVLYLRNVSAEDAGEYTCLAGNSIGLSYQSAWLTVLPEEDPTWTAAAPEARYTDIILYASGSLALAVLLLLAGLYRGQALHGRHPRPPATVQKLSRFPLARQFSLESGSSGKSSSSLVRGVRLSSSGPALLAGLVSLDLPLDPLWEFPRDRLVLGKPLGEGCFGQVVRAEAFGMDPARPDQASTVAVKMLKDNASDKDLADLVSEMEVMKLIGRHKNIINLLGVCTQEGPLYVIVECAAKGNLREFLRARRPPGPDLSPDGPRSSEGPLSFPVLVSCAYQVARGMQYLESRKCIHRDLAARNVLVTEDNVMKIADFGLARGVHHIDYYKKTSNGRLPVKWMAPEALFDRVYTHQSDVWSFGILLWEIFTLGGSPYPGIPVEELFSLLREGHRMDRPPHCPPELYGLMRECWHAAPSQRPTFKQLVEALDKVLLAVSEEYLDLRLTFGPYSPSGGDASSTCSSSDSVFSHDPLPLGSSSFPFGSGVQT

IKKβ(h) = molecular target: T2, IKKβ(h) (Homo sapiens, UniProt O14920)
T2 sequence (O14920 1-756): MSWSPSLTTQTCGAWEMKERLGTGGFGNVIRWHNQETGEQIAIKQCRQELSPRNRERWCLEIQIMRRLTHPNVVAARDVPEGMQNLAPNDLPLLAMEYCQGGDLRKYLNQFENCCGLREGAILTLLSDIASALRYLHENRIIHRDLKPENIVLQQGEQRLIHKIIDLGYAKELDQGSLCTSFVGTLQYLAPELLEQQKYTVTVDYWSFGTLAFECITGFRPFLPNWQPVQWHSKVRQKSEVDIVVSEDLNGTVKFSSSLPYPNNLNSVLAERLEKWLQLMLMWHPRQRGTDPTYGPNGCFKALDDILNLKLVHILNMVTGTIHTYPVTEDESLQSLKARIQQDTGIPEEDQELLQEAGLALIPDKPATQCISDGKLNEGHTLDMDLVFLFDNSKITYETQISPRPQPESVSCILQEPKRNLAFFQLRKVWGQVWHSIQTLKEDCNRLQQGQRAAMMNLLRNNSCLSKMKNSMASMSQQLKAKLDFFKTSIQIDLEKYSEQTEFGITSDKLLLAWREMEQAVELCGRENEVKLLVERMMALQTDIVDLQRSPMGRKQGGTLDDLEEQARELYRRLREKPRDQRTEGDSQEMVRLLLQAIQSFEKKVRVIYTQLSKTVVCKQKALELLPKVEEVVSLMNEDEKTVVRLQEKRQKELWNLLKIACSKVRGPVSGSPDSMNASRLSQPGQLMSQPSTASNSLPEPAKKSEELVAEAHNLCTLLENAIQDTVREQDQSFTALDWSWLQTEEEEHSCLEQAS

Lck(h) = Lck(h) (Homo sapiens, UniProt P06239)
Lck(h), sequence (P06239 whole entry): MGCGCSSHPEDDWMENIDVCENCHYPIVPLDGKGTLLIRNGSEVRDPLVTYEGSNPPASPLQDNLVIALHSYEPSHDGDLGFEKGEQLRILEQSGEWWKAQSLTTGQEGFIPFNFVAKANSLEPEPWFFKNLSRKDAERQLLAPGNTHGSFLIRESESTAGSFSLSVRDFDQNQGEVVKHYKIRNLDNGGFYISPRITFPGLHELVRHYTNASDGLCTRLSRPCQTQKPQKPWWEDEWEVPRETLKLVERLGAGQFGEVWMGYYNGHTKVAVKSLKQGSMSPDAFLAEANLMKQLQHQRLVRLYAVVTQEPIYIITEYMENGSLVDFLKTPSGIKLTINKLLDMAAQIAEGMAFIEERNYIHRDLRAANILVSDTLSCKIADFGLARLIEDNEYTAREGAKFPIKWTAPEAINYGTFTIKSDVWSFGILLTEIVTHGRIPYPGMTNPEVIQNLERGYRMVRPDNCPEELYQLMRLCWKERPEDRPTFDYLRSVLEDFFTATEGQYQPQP

MLCK(h) = molecular target: MLCK(h)
PRAK(h) = molecular target: T3, PRAK(h) (Homo sapiens, UniProt Q8IW41)
T3 sequence (Q8IW41 1-473): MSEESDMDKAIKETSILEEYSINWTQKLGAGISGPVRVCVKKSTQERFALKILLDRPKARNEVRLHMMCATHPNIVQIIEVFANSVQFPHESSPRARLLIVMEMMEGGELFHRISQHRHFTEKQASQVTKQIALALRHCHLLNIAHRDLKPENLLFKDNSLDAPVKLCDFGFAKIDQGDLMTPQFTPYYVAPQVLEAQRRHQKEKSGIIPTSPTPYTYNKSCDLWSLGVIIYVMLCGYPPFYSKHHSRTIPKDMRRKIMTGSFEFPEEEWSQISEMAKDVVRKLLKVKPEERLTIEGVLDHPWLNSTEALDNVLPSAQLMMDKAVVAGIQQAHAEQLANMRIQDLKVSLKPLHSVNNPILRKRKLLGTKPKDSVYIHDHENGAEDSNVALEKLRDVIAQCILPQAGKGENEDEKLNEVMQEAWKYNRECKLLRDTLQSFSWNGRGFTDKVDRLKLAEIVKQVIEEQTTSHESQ

CC(C)CCC(=O)[C@]1(O)C(O)=C(C(=O)C(C)C)C(=O)[C@H]1CCC(C)C [TH2, tetrahydroiso-cohumulone]
kinase inhibition (EphB4(h); 1 μg/ml): 106% of control
kinase inhibition (EphB4(h); 5 μg/ml): 112% of control
kinase inhibition (EphB4(h); 25 μg/ml): 116% of control
kinase inhibition (EphB4(h); 50 μg/ml): 109% of control
kinase inhibition (EphB4(h); 100 μg/ml): 98% of control
kinase inhibition (FGFR4(h); 1 μg/ml): 89% of control
kinase inhibition (FGFR4(h); 5 μg/ml): 81% of control
kinase inhibition (FGFR4(h); 25 μg/ml): 55% of control
kinase inhibition (FGFR4(h); 50 μg/ml): 64% of control
kinase inhibition (FGFR4(h); 100 μg/ml): 55% of control
kinase inhibition (IKKβ(h); 1 μg/ml): 111% of control
kinase inhibition (IKKβ(h); 5 μg/ml): 107% of control
kinase inhibition (IKKβ(h); 25 μg/ml): 94% of control
kinase inhibition (IKKβ(h); 50 μg/ml): 77% of control
kinase inhibition (IKKβ(h); 100 μg/ml): 76% of control
kinase inhibition (Lck(h); 1 μg/ml): 106% of control
kinase inhibition (Lck(h); 5 μg/ml): 111% of control
kinase inhibition (Lck(h); 25 μg/ml): 86% of control
kinase inhibition (Lck(h); 50 μg/ml): 83% of control
kinase inhibition (Lck(h); 100 μg/ml): 78% of control
kinase inhibition (MLCK(h); 1 μg/ml): 98% of control
kinase inhibition (MLCK(h); 5 μg/ml): 96% of control
kinase inhibition (MLCK(h); 25 μg/ml): 105% of control
kinase inhibition (MLCK(h); 50 μg/ml): 93% of control
kinase inhibition (MLCK(h); 100 μg/ml): 86% of control
kinase inhibition (PRAK(h); 1 μg/ml): 66% of control
kinase inhibition (PRAK(h); 5 μg/ml): 45% of control
kinase inhibition (PRAK(h); 25 μg/ml): 19% of control
kinase inhibition (PRAK(h); 50 μg/ml): 24% of control
kinase inhibition (PRAK(h); 100 μg/ml): 19% of control

From patent US20100137449A1, “SUBSTITUTED 1,3-CYCLOPENTADIONE MULTI-TARGET PROTEIN KINASE MODULATORS OF CANCER, ANGIOGENESIS AND THE INFLAMMATORY PATHWAYS ASSOCIATED THEREWITH” (METAPROTEOMICS, LLC, priority 2007, published 2010)
